Measured values published in ChEMBL document CHEMBL1135233, “Cytotoxic, antifouling bromotyramines: a synthetic study on simple marine natural products and Their analogues” (Bioorg Med Chem Lett, 2002).
In brackets after ≈: the same amount, converted by molar mass.

test system: Amphibalanus amphitrite; test: Antifouling activity of compound against Balanus amphitrite expressed by inhibition of settlement of barnacle cyprids; format: functional; settings: not given

Going from `COc1c(Br)cc(CCN)cc1Br` to `NCCOc1c(Br)cc(CCN)cc1Br`, the EC50 rises from 0.07 µg/mL (≈ 0.227 µM) to 0.8 µg/mL (≈ 2.37 µM) (11-fold).

Going from `NCCCOc1ccc(CCN)cc1` to `NCCCOc1c(Cl)cc(CCN)cc1Cl`, the EC50 falls from over 50 µg/mL to 33 µg/mL (≈ 125 µM).

Compared with `CCCCCCCCNCCc1cc(Br)c(OC)c(Br)c1`, `CCCCCCCC(=O)NCCc1cc(Br)c(OC)c(Br)c1` is 25-fold higher in EC50: 0.008 µg/mL (≈ 0.019 µM) for the first, 0.2 µg/mL (≈ 0.46 µM) for the second.

`NCCCCOc1c(Br)cc(CCN)cc1Br` and `NCCCOc1c(Br)cc(CCN)cc1Br` [MOLOKA'IAMINE] are within 1.5-fold of each other in EC50: 6 µg/mL (≈ 16.4 µM) for the first, 5 µg/mL (≈ 14.2 µM) for the second.

test system: CCRF-CEM; test: Tested for the cytotoxicity against CCRF-CEM leukemia cell line […]; format: functional; settings: Homo sapiens

Compared with `COc1c(Br)cc(CCN)cc1Br`, `CCCCCCCC(=O)NCCc1cc(Br)c(OC)c(Br)c1` is higher in GI50: under 10 nM for the first, 400 nM for the second.

test system: Hs-578T; test: Tested for the cytotoxicity against Hs 578.T breast cancer cell line; format: functional; settings: Homo sapiens

Work on `COc1c(Br)cc(CCN)cc1Br` yielded a GI50 of 200 nM.

test system: MCF7; test: Tested for growth inhibition against human MCF-7 breast cancer cell line at 100 uM; format: functional; settings: not given

First: N#CC(=O)NCCCOc1c(Br)cc(CCN)cc1Br [CERATINAMINE]
Second: NCCCOc1c(Br)cc(CCN)cc1Br [MOLOKA'IAMINE]
The Growth of the first is lower: 7% for the first, 38% for the second.

Going from `CC(=O)NCCc1cc(Br)c(O)c(Br)c1` to `CCCCCCCC(=O)NCCc1cc(Br)c(OC)c(Br)c1`, the Growth falls from 88% to -74%.

Going from `COc1c(Br)cc(CCN)cc1Br` to `NCCOc1c(Br)cc(CCN)cc1Br`, the Growth rises from 8% to 39%.

Going from `NCCCOc1ccc(CCN)cc1` to `NCCCOc1c(Cl)cc(CCN)cc1Cl`, the Growth falls from 104% to -53%.

First: CCCCCCCCNCCc1cc(Br)c(OC)c(Br)c1
Second: NCCCCOc1c(Br)cc(CCN)cc1Br
The Growth of the first is lower: -82% for the first, 19% for the second.

test system: NCI-H460; test: Tested for growth inhibition against human NCI-H460 lung cancer cell line at 100 uM; format: functional; settings: not given

Compared with `N#CC(=O)NCCCOc1c(Br)cc(CCN)cc1Br` [CERATINAMINE], `NCCCOc1c(Br)cc(CCN)cc1Br` [MOLOKA'IAMINE] is lower in Growth: 82% for the first, 68% for the second.

First: CC(=O)NCCc1cc(Br)c(O)c(Br)c1
Second: CCCCCCCC(=O)NCCc1cc(Br)c(OC)c(Br)c1
The Growth of the first is higher: 105% for the first, 1% for the second.

First: COc1c(Br)cc(CCN)cc1Br
Second: NCCOc1c(Br)cc(CCN)cc1Br
The Growth of the first is lower: 53% for the first, 70% for the second.

First: NCCCOc1ccc(CCN)cc1
Second: NCCCOc1c(Cl)cc(CCN)cc1Cl
The Growth of the first is higher: 120% for the first, 93% for the second.

Going from `CCCCCCCCNCCc1cc(Br)c(OC)c(Br)c1` to `NCCCCOc1c(Br)cc(CCN)cc1Br`, the Growth rises from -83% to 25%.

test system: NCI-H460; test: Tested for the cytotoxicity against NCI-H460 lung cancer cell line […]; format: functional; settings: Homo sapiens

`CCCCCCCCNCCc1cc(Br)c(OC)c(Br)c1` gave a GI50 of 50 nM.

test system: NCI-H226; test: Tested for the cytotoxicity against NCI-H226 lung cancer cell line […]; format: functional; settings: Homo sapiens

Work on `COc1c(Br)cc(CCN)cc1Br` yielded a GI50 of under 10 nM.

test system: P388; test: Tested for the inhibition against P388 murine leukemia cell; format: functional, cell-based; settings: Mus musculus

With `NCCCOc1c(Br)cc(CCN)cc1Br` [MOLOKA'IAMINE] the IC50 was 2.1 µg/mL (≈ 5.96 µM).

test system: SF-268; test: Tested for growth inhibition against human SF-268 CNS cancer cell line at 100 uM; format: functional; settings: not given

First: N#CC(=O)NCCCOc1c(Br)cc(CCN)cc1Br [CERATINAMINE]
Second: NCCCOc1c(Br)cc(CCN)cc1Br [MOLOKA'IAMINE]
The Growth of the first is lower: 39% for the first, 62% for the second.

First: CC(=O)NCCc1cc(Br)c(O)c(Br)c1
Second: CCCCCCCC(=O)NCCc1cc(Br)c(OC)c(Br)c1
The Growth of the first is higher: 84% for the first, -68% for the second.

Going from `COc1c(Br)cc(CCN)cc1Br` to `NCCOc1c(Br)cc(CCN)cc1Br`, the Growth rises from 16% to 70%.

Going from `NCCCOc1ccc(CCN)cc1` to `NCCCOc1c(Cl)cc(CCN)cc1Cl`, the Growth falls from 120% to 85%.

Going from `CCCCCCCCNCCc1cc(Br)c(OC)c(Br)c1` to `NCCCCOc1c(Br)cc(CCN)cc1Br`, the Growth rises from -84% to 50%.

test system: SW-620; test: Tested for the cytotoxicity against SW-620 colon cancer cell line […]; format: functional; settings: Homo sapiens

Work on `COc1c(Br)cc(CCN)cc1Br` yielded a GI50 of under 10 nM.

test system: not listed separately; test: Tested for the lethality dose against barnacle cyprids of Balanus amphitrite; settings: Amphibalanus amphitrite; read-out: LD50 (the source's name)

First: COc1c(Br)cc(CCN)cc1Br
Second: CCCCCCCCNCCc1cc(Br)c(OC)c(Br)c1
The LC50 of the first is 6.7-fold higher: 0.2 µg/mL (≈ 0.647 µM) for the first, 0.03 µg/mL (≈ 0.0712 µM) for the second.

`CCCCCCCC(=O)NCCc1cc(Br)c(OC)c(Br)c1` gave an LC50 of 1 µg/mL (≈ 2.3 µM).
